Test results from patent publication US11395489B2, “Microbiocidal picolinamide derivatives” (Syngenta Participations AG, priority 2017, dated 2022).

Assays:
[1] = test system: Monocraphella nivalis (Microdochium nivale); assay: Monocraphella nivalis (Microdochium nivale) / liquid culture (Foot Rot Cereals); format: cell-based; details: 96 h, 200 ppm in the formulation, inhibition of growth determined photometrically 4-5 days after application, read-out: disease control
Method: (§1) Monocraphella nivalis (Microdochium nivale)/Liquid Culture (Foot Rot Cereals) Conidia of the fungus from cryogenic storage are directly mixed into nutrient broth (PDB potato dextrose broth). After placing a (DMSO) solution of test compound into a microtiter plate (96-well format), the nutrient broth containing the fungal spores is added. The test plates are incubated at 24° C. and the inhibition of growth is determined photometrically 4-5 days after application.

[2] = test system: Mycosphaerella arachidis (Cercospora arachidicola); assay: Mycosphaerella arachidis (Cercospora arachidicola) / liquid culture (Early Leaf Spot); format: cell-based; details: 96 h, 200 ppm in the formulation, inhibition of growth determined photometrically 4-5 days after application, read-out: disease control
Method: as §1, with “Mycosphaerella arachidis (Cercospora arachidicola)/Liquid” for “Monocraphella nivalis (Microdochium nivale)/Liquid”, “(Early Leaf Spot)” for “(Foot Rot Cereals)”

[3] = test system: Glomerella lacenarium (Colletotrichum lacenarium); assay: Glomerella lacenarium (Colletotrichum lacenarium) / liquid culture (Anthracnose); format: cell-based; details: 200 ppm in the formulation, inhibition of growth measured photometrically 3-4 days after application, read-out: disease control
Method: as §1, with “Glomerella lacenarium (Colletotrichum lacenarium)/Liquid” for “Monocraphella nivalis (Microdochium nivale)/Liquid”, “(Anthracnose)” for “(Foot Rot Cereals)”, “measured” for “determined”, “3-4” for “4-5”

[4] = test system: Mycosphaerella Raminicola (Septoria tritici); assay: Mycosphaerella Raminicola (Septoria tritici) / liquid culture (Septoria Blotch); format: cell-based; details: 200 ppm in the formulation, inhibition of growth determined photometrically 4 to 5 days after application, read-out: disease control
Method: as §1, with “Mycosphaerella Raminicola (Septoria tritici)/Liquid” for “Monocraphella nivalis (Microdochium nivale)/Liquid”, “(Septoria Blotch)” for “(Foot Rot Cereals)”, “4 to 5” for “4-5”

[5] = test system: Puccinia recondita f. Sp. Tritici; assay: Puccinia recondita f. sp. tritici / wheat / leaf disc preventative (Brown Rust); format: in vivo; details: foliar, 168 h, 200 ppm in the formulation, compared to untreated, 7-9 days after application, read-out: disease control
[6] = test system: Phaeosphaeria Nodorum (Septoria nodorum); assay: Phaeosphaeria nodorum (Septoria nodorum) / wheat / leaf disc preventative (Glume Blotch); format: in vivo; details: Parastagonospora nodorum, foliar, 200 ppm in the formulation, compared to untreated, 5-7 days after application, read-out: disease control
Method: Phaeosphaeria Nodorum (Septoria nodorum)/Wheat/Leaf Disc Preventative (Glume Blotch) Wheat leaf segments cv. Kanzler are placed on agar in a multiwell plate (24-well format) and sprayed with the formulated test compound diluted in water. The leaf disks are inoculated with a spore suspension of the fungus 2 days after application. The inoculated test leaf disks are incubated at 20° C. and 75% rh under a light regime of 12 h light/12 h darkness in a climate cabinet and the activity of a compound is assessed as percent disease control compared to untreated when an appropriate level of disease damage appears in untreated check leaf disks (5-7 days after application).

[7] = test system: Botryotinia fuckeliana (Botrytis cinerea); assay: Botryotinia fuckeliana (Botrytis cinerea) / liquid culture (Gray Mould); format: cell-based; details: 72 h, 200 ppm in the formulation, inhibition of growth determined photometrically 3-4 days after application, read-out: disease control
Method: as §1, with “Botryotinia fuckeliana (Botrytis cinerea)/Liquid” for “Monocraphella nivalis (Microdochium nivale)/Liquid”, “(Gray Mould)” for “(Foot Rot Cereals)”, “(Vogels” for “(PDB potato dextrose”, “3-4” for “4-5”

[8] = test system: Magnaporthe risea (Pyricularia Oryzae); assay: whole plant or invertebrate; format: in vivo; details: foliar, read-out: disease control

COc1ccnc(C(=O)N[C@@H](C)C(=O)OC(C)C2(c3cccc4ccccc34)CC2)c1O (stereo partly drawn) [I.v.006, 1-[1-(1-naphthyl)cyclo-propyl]ethyl (2S)-2-[(3-hydroxy-4-methoxy-pyridine-2-carbonyl)-amino]propanoate]
≥ 80%: inhibition of growth at 200 ppm [1] | inhibition of growth at 200 ppm [2] | inhibition of growth at 200 ppm [3] | inhibition of growth at 200 ppm [4] | pest or weed control at 200 ppm [5] | pest or weed control at 200 ppm [6]

COc1ccnc(C(=O)N[C@@H](C)C(=O)OC(C)C2(c3cccc(Br)c3)CC2)c1O (stereo partly drawn) [I.d.006, 1-[1-(3-bromophenyl)-cyclopropyl]ethyl (2S)-2-[(3-hydroxy-4-methoxy-pyridine-2-carbonyl)amino]propanoate]
≥ 80%: inhibition of growth at 200 ppm [1] | inhibition of growth at 200 ppm [2] | inhibition of growth at 200 ppm [7] | inhibition of growth at 200 ppm [3] | inhibition of growth at 200 ppm [4] | pest or weed control at 200 ppm [5]

COc1ccnc(C(=O)N[C@@H](C)C(=O)OC(C)C2(c3cccc4ccccc34)CC2c2ccccc2)c1O (stereo partly drawn) [I.v.010, 1-[1-(1-naphthyl)-2-phenyl-cyclopropyl]-ethyl (2S)-2-[(3-hydroxy-4-methoxy-pyridine-2-carbonyl)-amino]propanoate]
≥ 80%: inhibition of growth at 200 ppm [2] | inhibition of growth at 200 ppm [3] | inhibition of growth at 200 ppm [4] | pest or weed control at 200 ppm [5]

COc1ccnc(C(=O)N[C@@H](C)C(=O)OC(C)C2(c3ccc(Br)cc3)CCC2)c1O (stereo partly drawn) [I.m.012, 1-[1-(4-bromophenyl)-cyclobutyl]ethyl (2S)-2-[(3-hydroxy-4-methoxy-pyridine-2-carbonyl)amino]propanoate]
≥ 80%: pest or weed control at 200 ppm [8] | inhibition of growth at 200 ppm [1] | inhibition of growth at 200 ppm [2] | inhibition of growth at 200 ppm [7] | inhibition of growth at 200 ppm [3] | inhibition of growth at 200 ppm [4] | pest or weed control at 200 ppm [5]

CCOc1ccc(C2(C(C)OC(=O)[C@H](C)NC(=O)c3nccc(OC)c3O)CC2(F)F)cc1 (stereo partly drawn) [I.u.007, 1-[1-(4-ethoxyphenyl)-2,2-difluorocyclopropyl]-ethyl (2S)-2-[(3-hydroxy-4-methoxy-pyridine-2-carbonyl)amino]propanoate]
≥ 80%: pest or weed control at 200 ppm [8] | inhibition of growth at 200 ppm [1] | inhibition of growth at 200 ppm [7] | inhibition of growth at 200 ppm [3] | inhibition of growth at 200 ppm [4] | pest or weed control at 200 ppm [5]

COc1ccnc(C(=O)N[C@@H](C)C(=O)OC(C)C(C)(C)c2ccc(F)cc2)c1O (stereo partly drawn) [I.j.001, [2-(4-fluorophenyl)-1,2-dimethyl-propyl] (2S)-2-[(3-hydroxy-4-methoxy-pyridine-2-carbonyl)-amino]propanoate]
≥ 80%: inhibition of growth at 200 ppm [1] | inhibition of growth at 200 ppm [2] | inhibition of growth at 200 ppm [7] | inhibition of growth at 200 ppm [3] | inhibition of growth at 200 ppm [4] | pest or weed control at 200 ppm [5]

COc1ccnc(C(=O)N[C@@H](C)C(=O)OC(C)C2(c3ccc(Cl)cc3)CCCC2)c1O (stereo partly drawn) [I.k.014, 1-[1-(4-chlorophenyl)-cyclopentyl]ethyl (2S)-2-[(3-hydroxy-4-methoxy-pyridine-2-carbonyl)amino]propanoate]
≥ 80%: pest or weed control at 200 ppm [8] | inhibition of growth at 200 ppm [1] | inhibition of growth at 200 ppm [2] | inhibition of growth at 200 ppm [7] | inhibition of growth at 200 ppm [3] | inhibition of growth at 200 ppm [4] | pest or weed control at 200 ppm [5]

COc1ccnc(C(=O)N[C@@H](C)C(=O)OC(C)C(C)(C)c2ccccc2)c1O (stereo partly drawn) [I.a.001, (1,2-dimethyl-2-phenyl-propyl) (2S)-2-[(3-hydroxy-4-methoxy-pyridine-2-carbonyl)amino]propanoate]
≥ 80%: inhibition of growth at 200 ppm [1] | inhibition of growth at 200 ppm [2] | inhibition of growth at 200 ppm [7] | inhibition of growth at 200 ppm [4] | pest or weed control at 200 ppm [5] | pest or weed control at 200 ppm [6]

COc1ccnc(C(=O)N[C@@H](C)C(=O)OC(C)C2(c3ccc(Cl)c(Cl)c3)CC2)c1O (stereo partly drawn) [I.t.006, 1-[1-(3,4-dichloro-phenyl)cyclopropyl]-ethyl (2S)-2-[(3-hydroxy-4-methoxy-pyridine-2-carbonyl)-amino]propanoate]
≥ 80%: pest or weed control at 200 ppm [8] | inhibition of growth at 200 ppm [1] | inhibition of growth at 200 ppm [2] | inhibition of growth at 200 ppm [7] | inhibition of growth at 200 ppm [3] | inhibition of growth at 200 ppm [4] | pest or weed control at 200 ppm [5]

COc1ccnc(C(=O)N[C@@H](C)C(=O)OC(C)C2(c3ccccc3)CC2)c1O (stereo partly drawn) [I.a.006, 1-(1-phenylcyclopropyl)ethyl (2S)-2-[(3-hydroxy-4-methoxy-pyridine-2-carbonyl)amino]propanoate]
≥ 80%: pest or weed control at 200 ppm [8] | inhibition of growth at 200 ppm [1] | inhibition of growth at 200 ppm [2] | inhibition of growth at 200 ppm [7] | inhibition of growth at 200 ppm [4] | pest or weed control at 200 ppm [5]

COc1ccnc(C(=O)N[C@@H](C)C(=O)OC(C)C2(c3ccc(F)cc3)CC2c2ccccc2)c1O (stereo partly drawn) [I.j.010, 1-[1-(4-fluorophenyl)-2-phenyl-cyclopropyl]-ethyl (2S)-2-[(3-hydroxy-4-methoxy-pyridine-2-carbonyl)-amino]propanoate]
≥ 80%: inhibition of growth at 200 ppm [2] | inhibition of growth at 200 ppm [3] | inhibition of growth at 200 ppm [4] | pest or weed control at 200 ppm [5]

COc1ccnc(C(=O)N[C@@H](C)C(=O)OC(C)C2(c3ccc(OC(F)(F)F)cc3)CC2)c1O (stereo partly drawn) [I.q.006, 1-[1-[4-(trifluoro-methoxy)phenyl]cyclo-propyl]ethyl (2S)-2-[(3-hydroxy-4-methoxy-pyridine-2-carbonyl)amino]propanoate]
≥ 80%: pest or weed control at 200 ppm [8] | inhibition of growth at 200 ppm [1] | inhibition of growth at 200 ppm [2] | inhibition of growth at 200 ppm [7] | inhibition of growth at 200 ppm [3] | inhibition of growth at 200 ppm [4] | pest or weed control at 200 ppm [5]

COc1ccnc(C(=O)N[C@@H](C)C(=O)OC(C)C2(c3ccc(Cl)cc3)CC2)c1O (stereo partly drawn) [I.k.006, 1-[1-(4-chlorophenyl)-cyclopropyl]ethyl (2S)-2-[(3-hydroxy-4-methoxy-pyridine-2-carbonyl)amino]propanoate]
≥ 80%: inhibition of growth at 200 ppm [1] | inhibition of growth at 200 ppm [2] | inhibition of growth at 200 ppm [7] | inhibition of growth at 200 ppm [4] | pest or weed control at 200 ppm [5] | pest or weed control at 200 ppm [6]

COc1ccnc(C(=O)N[C@@H](C)C(=O)OC(C)C2(c3ccc(F)cc3)CC2c2ccc(F)cc2)c1O (stereo partly drawn) [I.j.011, 1-[1,2-bis(4-fluoro-phenyl)cyclopropyl]-ethyl (2S)-2-[(3-hydroxy-4-methoxy-pyridine-2-carbonyl)-amino]propanoate]
≥ 80%: inhibition of growth at 200 ppm [1] | inhibition of growth at 200 ppm [2] | inhibition of growth at 200 ppm [3] | inhibition of growth at 200 ppm [4] | pest or weed control at 200 ppm [5]

COc1ccnc(C(=O)N[C@@H](C)C(=O)OC(C)C2(c3cccc4ccccc34)CC2c2ccc(F)cc2)c1O (stereo partly drawn) [I.v.011, 1-[2-(4-fluorophenyl)-1-(1-naphthyl)cyclo-propyl]ethyl (2S)-2-[(3-hydroxy-4-methoxy-pyridine-2-carbonyl)amino]-propanoate]
≥ 80%: inhibition of growth at 200 ppm [2] | inhibition of growth at 200 ppm [3] | inhibition of growth at 200 ppm [4] | pest or weed control at 200 ppm [5]
